The nature of the assay: Oxygen absorption (time to absorb one percent oxygen). Particulars: 1.0 part antioxidant in SBR-1006.

This note sets out measurements from US4414408A, “Phenolic antioxidants” (The Goodyear Tire & Rubber Company, priority 1982, dated 1983).

Regarding `C=CC(=O)Oc1c(Cc2cc(C)cc(C(C)(C)C)c2O)cc(C)cc1C(C)(C)C` [Example 8, 2-(2-hydroxy-3-tert.butyl-5-methylbenzyl)-4-methyl-6-tert.butyl phenyl acrylate], the “Hours to Absorb 1% O2” value was found to be 315 h.
